From PMC3527451, “A Pilot Randomized, Placebo Controlled, Double Blind Phase I Trial of the Novel SIRT1 Activator SRT2104 in Elderly Volunteers” (PLoS ONE, 2012)

Test system: elderly male and female volunteers
Assay: Safety and tolerability, treatment-emergent adverse events in elderly volunteers
Format: in vivo, human
Settings: for serum creatinine of one subject: 0.5 g/day cohort
Method: This was a phase I, single-center, double-blind, randomized, placebo-controlled, parallel-arm study to assess the safety, tolerability, pharmacokinetic and initial pharmacodynamic properties of SRT2104 (Sirtris Pharmaceuticals, Cambridge, MA, USA) administered for the first time to male and female elderly volunteers 60 to 80 years of age. Volunteers were enrolled between 01 Oct 2009 and 5 Feb 2010. Doses of 0.5 and 2.0 g or matching placebo were administered once daily for 28 consecutive days. The selection of the doses investigated in this study was based upon safety and pharmacokinetic data obtained from a previous clinical study involving SRT2104 [19]. Suitability of participants was defined on the basis of a medical history, physical examination, vital signs, electrocardiogram and laboratory measurements. Subjects were required to have normal fasting glucose levels (4.4 to 6.0 mmol/L) at screening and a body mass index of at least 18 kg/m^2 and no greater than 30 kg/m^2. […] Subjects were deemed ineligible if they participated in any clinical trial with an investigative medicinal product within the past three months prior to the first dose in the current study, had been exposed to more than three new chemical entities within 12 months of enrollment, or used other concomitant medications and herbal products in the previous 3 months that in the opinion of the investigator could interfere with the study procedures or compromise subject safety. Additional exclusions included: women of childbearing potential and non-sterile men, unless they agreed to use acceptable method of contraception; history of alcoholism or drug abuse (including a positive pre-study drug/alcohol test at screening); use of tobacco or nicotine products; history of complications when donating blood or known relative inaccessibility of veins for venipuncture; donation of blood within three months of enrolment; history of significant drug or other allergies. Participants were asked to maintain their usual level of physical activity for the duration of the study.
At every visit (including at screening and follow-up), blood and urine samples were collected for clinical laboratory assessments (general blood biochemistry, full blood count, coagulation parameters and urinalysis). On the same days, physical examination, vital signs (resting pulse rate, respiration rate, temperature, and blood pressure readings), pre- and post-dose 12-lead ECG and a review of adverse events (AE) and any medications received were also performed. Safety evaluations were based on the incidence, severity and type of AEs and clinically significant changes from baseline in physical examination findings, vital signs or clinical laboratory results.

[1] = 28 days continuous administration

## Cc1nc(-c2cccnc2)sc1C(=O)Nc1ccccc1-c1cn2c(CN3CCOCC3)csc2n1 [SRT2104]
0.5 and 2.0 g/day for 28 days
  safety and tolerability: generally safe and well tolerated
0.5 g/day (n = 8)
  Abdominal distension, number of subjects: 1
  Abdominal distension, percent of subjects: (13%)
  Abdominal pain lower, number of subjects: 1
  Abdominal pain lower, percent of subjects: (13%)
  Any adverse event, percent of subjects: (100%)
  Application site haematoma, number of subjects: 1
  Application site haematoma, percent of subjects: (13%)
  Arthralgia, number of subjects: 1
  Arthralgia, percent of subjects: (13%)
  Back pain, number of subjects: 1
  Back pain, percent of subjects: (13%)
  Blood creatinine increased, number of subjects: 1
  Blood creatinine increased, percent of subjects: (13%)
  Constipation, number of subjects: 0
  Cough, number of subjects: 0
  Decreased Appetite, number of subjects: 1
  Decreased Appetite, percent of subjects: (13%)
  Diarrhoea, number of subjects: 1
  Diarrhoea, percent of subjects: (13%)
  Dizziness, number of subjects: 0
  Dry eye, number of subjects: 0
  Dysphonia, number of subjects: 0
  Epistaxis, number of subjects: 0
  Erythema, number of subjects: 1
  Erythema, percent of subjects: (13%)
  Eye pain, number of subjects: 0
  Fall, number of subjects: 0
  Fatigue, number of subjects: 0
  Headache, number of subjects: 5
  Headache, percent of subjects: (63%)
  Insomnia, number of subjects: 1
  Insomnia, percent of subjects: (13%)
  Joint stiffness, number of subjects: 0
  Lethargy, number of subjects: 1
  Lethargy, percent of subjects: (13%)
  Limb injury, number of subjects: 0
  Mass, number of subjects: 0
  Migraine, number of subjects: 1
  Migraine, percent of subjects: (13%)
  Muscle spasms, number of subjects: 0
  Muscular weakness, number of subjects: 0
  Nasopharyngitis, number of subjects: 1
  Nasopharyngitis, percent of subjects: (13%)
  Nausea, number of subjects: 1
  Nausea, percent of subjects: (13%)
  Number of subjects experiencing any adverse event: 8
  Palpitations, number of subjects: 1
  Palpitations, percent of subjects: (13%)
  Procedural pain, number of subjects: 1
  Procedural pain, percent of subjects: (13%)
  Rash, number of subjects: 1
  Rash, percent of subjects: (13%)
  Sensation of heaviness, number of subjects: 1
  Sensation of heaviness, percent of subjects: (13%)
  Sleep disorder, number of subjects: 1
  Sleep disorder, percent of subjects: (13%)
  Syncope vasovagal, number of subjects: 0
  Tenderness, number of subjects: 0
  Thermal burn, number of subjects: 0
  Urine output increased, number of subjects: 1
  Urine output increased, percent of subjects: (13%)
  Vomiting, number of subjects: 1
  Vomiting, percent of subjects: (13%)
Day 14 (drug stopped)
  serum creatinine of one subject: 151 µmol/L
Day 21 (normalization, drug restarted)
  serum creatinine of one subject: 126 µmol/L
Day 28 (relapse)
  serum creatinine of one subject: 154 µmol/L
End of study follow up visit
  serum creatinine of one subject: 116 µmol/L
2.0 g/day (n = 9)
  Abdominal distension, number of subjects: 0
  Abdominal pain lower, number of subjects: 0
  Any adverse event, percent of subjects: (100%)
  Application site haematoma, number of subjects: 1
  Application site haematoma, percent of subjects: (11%)
  Arthralgia, number of subjects: 0
  Back pain, number of subjects: 0
  Blood creatinine increased, number of subjects: 0
  Constipation, number of subjects: 1
  Constipation, percent of subjects: (11%)
  Cough, number of subjects: 1
  Cough, percent of subjects: (11%)
  Decreased Appetite, number of subjects: 0
  Diarrhoea, number of subjects: 2
  Diarrhoea, percent of subjects: (22%)
  Dizziness, number of subjects: 1
  Dizziness, percent of subjects: (11%)
  Dry eye, number of subjects: 0
  Dysphonia, number of subjects: 1
  Dysphonia, percent of subjects: (11%)
  Epistaxis, number of subjects: 0
  Erythema, number of subjects: 0
  Eye pain, number of subjects: 0
  Fall, number of subjects: 0
  Fatigue, number of subjects: 0
  Headache, number of subjects: 1
  Headache, percent of subjects: (11%)
  Insomnia, number of subjects: 0
  Joint stiffness, number of subjects: 0
  Lethargy, number of subjects: 0
  Limb injury, number of subjects: 1
  Limb injury, percent of subjects: (11%)
  Mass, number of subjects: 0
  Migraine, number of subjects: 0
  Muscle spasms, number of subjects: 0
  Muscular weakness, number of subjects: 0
  Nasopharyngitis, number of subjects: 4
  Nasopharyngitis, percent of subjects: (44%)
  Nausea, number of subjects: 0
  Number of subjects experiencing any adverse event: 9
  Palpitations, number of subjects: 0
  Procedural pain, number of subjects: 0
  Rash, number of subjects: 0
  Sensation of heaviness, number of subjects: 0
  Sleep disorder, number of subjects: 0
  Syncope vasovagal, number of subjects: 1
  Syncope vasovagal, percent of subjects: (11%)
  Tenderness, number of subjects: 0
  Thermal burn, number of subjects: 1
  Thermal burn, percent of subjects: (11%)
  Urine output increased, number of subjects: 0
  Vomiting, number of subjects: 0
[1]
  dose-limiting toxicities: no dose-limiting toxicities
  serious adverse events: no serious adverse events
